From US12324794B2, “Method to alleviate the symptoms of PMS” (priority 2016, dated 2025)

Experiments:
[1] = tested on: women with PMS / PMDD; experiment: Case studies of women with PMS or PMDD symptoms (Examples 2-6); format: in vivo, human
Source text: Below are some case studies and a human trial, both of which show significant improvement in symptoms. While acne can be measured by inspection, the other symptoms rely upon the internal feelings of the patient. To measure symptoms that deal with tender breasts, fatigue, difficulty concentrating, diminished impulse control, irritability, anxiety, tension, anger, depression, suicidal thoughts, feeling “out of control”, insomnia, cramping and rapid fluctuations in mood, one skilled in the art must rely on the interpretation of patient. This can be done through an interview with an expert, such as a medical doctor, or through validated survey forms that specifically address these symptoms. Examples of these forms that have been validated by independent clinical trial include: • Buss Perry Aggression Questionnaire (Anger) • Clinical Anger Scale (Anger) • Cohen-Perceived-Stress Scale (Anxiety) • Generalized-Anxiety-Scale (Anxiety) • Generalized Anxiety Disorder 7-item (GAD-7) scale (Anxiety) • Beck's Depression Inventory (Depression) • Center for Epidemiologic Studies Depression Scale (Depression) • Hospital Anxiety and Depression Scale (Anxiety and Depression) • Premenstrual Assessment Form (anger, depression, fatigue and anxiety) • Mood Calendar Tracking (anger, depression, fatigue and anxiety) A person experienced severe anger and depression one day a month, right before their period, every month. […] The cramping was not relieved by Midol or Aspirin. The person was despondent even after their symptoms of PMDD left because of guilt over their behavior during this time period. […] They reported that it was like a 1,000 pound weight being taken off their shoulders. The person in Example 3 continued to take oxaloacetate each month for the next three months and monitored their progress. They took one pill starting about 10 days before their period, and continued taking 1 pill daily until the first sign of PMS, when they increased the dosage to 2 capsules per day until the 2nd day of their period. […] They reported that “I am no longer a suicidal, psychotic crazy person every month. And I know it is the supplements because this will be the 3rd month with no PMDD and that is NOT a coincidence.” A person presented with severe PMDD ever since they were […]. They are now 26. Typically, the patient had to take-off from work 3 days out of each month, and self-seclude, because they could not be with people. […] The improvements with anhydrous enol-oxaloacetate have continued for over 2 years with this patient. A person presented with severe anxiety attacks and fatigue during the week before menstruation.

[2] = tested on: women with PMS; experiment: Randomized, double-blinded, placebo controlled cross-over trial for PMS emotional symptoms (Example 7); format: in vivo, human; conditions: 200 mg oxaloacetate per day, approx. 28 days, 26 women
Experimental: A randomized, double blinded placebo-controlled crossover trial was conducted using 200 mg oxaloacetate per day as the active ingredient, and rice flour as the placebo ingredient. An Institutional Review Board (IRB) has approved the clinical plan, and patients have signed the human consent forms. Patients were located from across the United States. Consent forms and survey questionnaires were filled out on-line. The patients and the lead investigator were unaware of which product, Active or Placebo, the patients were receiving. Inclusion Criteria for the trial: • Able to give informed consent and follow instructions per the protocol • Female with history of mood swings, anxiety or depressed mood associated with PMS • Ages 21 to 50 at the start of the study • Not pregnant Exclusion Criteria for the trial: • A formal diagnosis of Major Depression • Previously taken Oxaloacetate as a supplement • Participation in other drug studies or use of other investigational products within 30 days prior to baseline • If unwilling to discontinue use of other nutritional supplements taken for the purpose of PMS modulation during the study • Any unstable or clinically significant condition that would impair the subject's ability to comply with study follow up. • […] of Premenstrual Dysphoric Disorder (PMDD) (a severe form of PMS). After signing the human consent forms, the patient took four different surveys to assess their current emotional state during PMS. • The Beck Depression Inventory modified to examine the week prior to the person's period (21 questions) • The Cohen Perceived Stress form, modified to examine the week prior to the person's period (10 questions). • The Generalized Anxiety Disorder 7-Item Scale modified to examine the week prior to the person's period (7 questions). • The Buss Perry Aggression questionnaire modified to examine the week prior to the person's period (29 questions). The time to fill out the composite 4-survey questionnaire is less than 30 minutes. The questionnaires are filled out on-line and made available to investigator team. […] After a “baseline” 4-survey questionnaire was completed by the women, they would be randomly sent either the Active oxaloacetate compound (200 mg oxaloacetate) or the Placebo (200 mg rice flour). The women would take a daily dose of the compound received, starting with their menstrual period, and continuing daily until the following menstrual period. At that following menstrual period, the women would again complete the 4-survey questionnaire. […] This is a “cross-over” type design. The women take the new product staring on a menstrual period, and continue taking it daily until a following menstrual period. The then again complete the 4-survey questionnaire. In this trial, each woman completed a baseline survey, and a survey after approximately 28 days for oxaloacetate, and a survey after approximately 28 days for rice flour. 26 women completed the study. Half of the women took oxaloacetate first, and the other half took a placebo first. […] P values were calculated using a student's T test, using a two-tailed distribution with paring of the data to the individual.

[3] = tested on: women with PMS; experiment: Single-blinded, placebo controlled cross-over trial for PMS emotional symptoms (Example 8); format: in vivo, human; set-up: concentration or dose not given beside the values; conditions: placebo first, oxaloacetate second, 19 women
Source text: The clinical trial of Example 7 was repeated with 19 women, except that the trial was single blinded. The placebo was sent to all women first, and the oxaloacetate active second. […] This should not have come as a complete surprise to us, as oxaloacetate exerts a beneficial effect on gene expression (movement towards the calorie restriction metabolic state) that can have positive effects for several weeks after discontinuation of the product. To better measure the oxaloacetate effect, therefore, oxaloacetate was given second in this trial. P values were calculated using a student's T test, using a two-tailed distribution with paring of the data to the individual.

[4] = tested on: women with PMS; experiment: Suicidal Ideation item of Beck's Depression Inventory, Clinical Trials 1 and 2 compiled (Example 9); format: in vivo, human; conditions: 31 women with baseline score above 0, both trials compiled
Source text: In the clinical trials within Examples 7 and 8, the Beck's Depression Inventory was used. One portion of the Beck's Depression Inventory specifically deals with “Suicidal Ideation” (thoughts about committing suicide). The survey scores the relative severity of suicidal ideation via numerical scoring as follows: • Score Value • 0 I don't have any thoughts of killing myself. • 1 I have thoughts of killing myself, but I would not carry them out. • 2 I would like to kill myself. • 3 I would kill myself if I had the chance. The results of Clinical Trial 1 and 2 were compiled to examine the Suicidal Ideation of the women who participated in this clinical trial. Out of the 45 women in both trials, 31 women experienced a score above 0 in the baseline survey. No women in the completed study who scored 0 in the baseline study increased their suicidal ideation score. In order to examine suicidal ideation statistically, women with a 0 score on their baseline survey were removed from the analysis. P values were calculated using a student's T test, using a two-tailed distribution with paring of the data to the individual.

[5] = in vivo
Source text: The dose ratio between toxic and therapeutic effects is the therapeutic index and it can be expressed as the ratio LD50/ED50.

[6] = Stability / decarboxylation; format: physicochemical
Source text: The enol and keto form of oxaloacetic acid are tautomers, and in water form a chemical equilibrium. […] The keto-oxaloacetate decarboxylates quickly to pyruvate. As the keto-oxaloacetate form disappears due to decarboxylation, the enol and hydrated form convert to keto-oxaloacetate, and then also decarboxylate into carbon dioxide and pyruvate, until all the oxaloacetate is consumed. Note that neither of the byproducts of oxaloacetate decarboxylation, carbon dioxide and pyruvate, are effective in treating the symptoms of PMS and PMDD. If there are divalent cations in the fluid, which is very common, the decarboxylation of oxaloacetic acid can happen within a day. […] (See Cash, U.S. Pat. No. 9,050,306). […] Water catalyzes the equilibrium reaction between enol- and keto oxaloacetic acid. Note that only the keto form of oxaloacetic acid decarboxylates into pyruvate and carbon dioxide spontaneously, not the enol-form. There is an energy gap between the enol and keto form which is bridged when the compounds are exposed to water, however, this same energy gap prevents the conversion of the enol to keto form when the product is kept dry. Once there is a conversion to the keto form, decarboxylation can spontaneously occur at temperatures above the freezing point of water. […] Drying effectiveness can be increased by increasing the drying time, drying under vacuum, by using anhydrous washes of isopropyl alcohol or ethyl alcohol to absorb the remaining water (and then evaporating the alcohol), or by performing multiple washes with hexane or non-water soluble solvent to physically remove the water, typically after an alcohol wash. The non-water soluble solvent would then be evaporated off. […] Hexane is a residual solvent in many commercial food preparations including decaffeinated coffee, and is not toxic in small quantities. Alternatively, the final wash can be performed with liquefied propane, liquefied butane, ethyl acetate, ethane, carbon dioxide, or nitrous oxide to reduce the water content.

[7] = Forms of oxaloacetic acid in water; format: physicochemical; conditions: pH 6.9
Experimental: In some embodiments, the present invention provides methods for treating symptoms of PMS and methods for treating symptoms of PMS and PMDD comprising administration of compositions comprising oxaloacetate. Oxaloacetic acid, when dissolved in water, ionizes to oxaloacetate. The oxaloacetate can be in three forms depending on the pH of the solution. At low pH (<1.5) and low temperature (<4° C.) oxaloacetate hydrates. […] Outside of water solutions, the solid form of oxaloacetic acid is primarily in the enol form. All forms of oxaloacetic acid and the ion oxaloacetate are absorbed by the body. The hydrated form is mostly converted once it enters the higher pH of the body outside of the intestinal tract to the keto and enol form. […] Enol-oxaloacetate is converted to keto-oxaloacetate with the enzyme enol-keto tautomerase, a ubiquitous enzyme throughout the human body. The enol and keto form of oxaloacetic acid are tautomers, and in water form a chemical equilibrium. […] The keto-oxaloacetate decarboxylates quickly to pyruvate. As the keto-oxaloacetate form disappears due to decarboxylation, the enol and hydrated form convert to keto-oxaloacetate, and then also decarboxylate into carbon dioxide and pyruvate, until all the oxaloacetate is consumed. Note that neither of the byproducts of oxaloacetate decarboxylation, carbon dioxide and pyruvate, are effective in treating the symptoms of PMS and PMDD. If there are divalent cations in the fluid, which is very common, the decarboxylation of oxaloacetic acid can happen within a day.

With CC(=O)Oc1ccccc1C(=O)O [Aspirin, reference compound] the “relief of extreme cramping (pain level 10)” value ([1]; person with PMDD, history (Example 3)) was “not relieved”.

In the case of O=C(O)CC(=O)C(=O)O [Oxaloacetate], the “Beck's Depression Inventory, reduction from Placebo” value [2] is reported as 25.57%, the “Beck's Depression Inventory, reduction from baseline” value [2] is reported as 50.88% and the “Buss-Perry Aggression Scale, reduction from Placebo” value [2] is reported as 9.22%. The “Buss-Perry Aggression Scale, reduction from baseline” value [2] was 15.10%, the “Cohen Perceived Stress, reduction from Placebo” value [2] was 16.51% and the “Cohen Perceived Stress, reduction from baseline” value [2] was 34.35%. For the same compound, the “Generalized Anxiety Disorder, reduction from Placebo” value [2] was 28.08%, the “Generalized Anxiety Disorder, reduction from baseline” value [2] was 49.73% and the “Beck's Depression Inventory, reduction from Placebo” value [3] was 37.12%. The “Beck's Depression Inventory, reduction from baseline” value [3] was 54.42%, the “Buss-Perry Aggression Scale, reduction from Placebo” value [3] was 14.06% and the “Buss-Perry Aggression Scale, reduction from baseline” value [3] was 17.81%. The “Cohen Perceived Stress, reduction from Placebo” value [3] was 24.40%, the “Cohen Perceived Stress, reduction from baseline” value [3] was 36.67% and the “Generalized Anxiety Disorder, reduction from Placebo” value [3] was 38.02%. The “Generalized Anxiety Disorder, reduction from baseline” value [3] was 54.23%, the “Suicidal Ideation, reduction from Baseline” value [4] was 47.90% and the LD50 [5] was “above 5 g/kg of body weight”.

In the case of O=C(O)CC(=O)C(=O)O [anhydrous enol-oxaloacetate, anhydrous enol-oxaloacetic acid], the “fatigue during the week before menstruation” value ([1]; person, two 100 mg lozenges under the tongue (Example 6)) is reported as “greatly reduced”, the “time until panic attack subsided” value ([1]; person, two 100 mg lozenges under the tongue for 5 minutes (Example 6)) is reported as “less than 5 minutes” and the “severe premenstrual anger and depression” value ([1]; person, two capsules of 100 mg on that day (Example 2)) is reported as “reduced in intensity to the point where they could manage the symptoms easily”. For the same compound, the “stability at room temperature” value ([6]; room temperature, kept dry) was “exceeding one year”.

For O=C(O)CC(=O)C(=O)O [oxaloacetic acid], the “share in the enol form” value [7] was 11%, the “share in the hydrated form” value [7] was 5% and the “share in the keto form” value [7] was 84%. The “time to decarboxylation in fluid” value ([6]; divalent cations in the fluid) was “within a day” and the “stability of the hydrated form” value ([6]; very low pH, temperatures not exceeding 8° C.) was “less than one week”.
